Laboratory results published in patent publication US8778927B2, “Smoothened antagonism for the treatment of hedgehog pathway-related disorders” (Novartis AG, priority 2008, dated 2014).
Several values for one entry are separate records, joined by “and”; a condition that tells them apart may be missing. Identical values can stand only once. Entries after “also recorded” stand apart in the source; their conditions may differ. Values belong to the compound of their own block, whether it stands above or below them.

Columns and labels:
[1] = system: resistant medulloblastoma tumor cells; assay: ex-vivo medulloblastoma proliferation assay (3H thymidine, 48 h), resistant tumor cells; format: cell-based, mouse
Experimental: (§1) The effect of statins (e.g., simvastatin, flustatin) on the proliferation of medulloblastoma cells derived from sensitive and resistant Ptch+/− cells was evaluated by using an “ex-vivo medulloblastoma proliferation assay.” Using Ptch+/−p53−/−, Ptch+/−Hic+/− or Ptch+/− medulloblastoma tumors freshly harvested from allografted nude mice, we have developed a short-term 48 h proliferation assay that enables us to assess the in vitro potency of Smo inhibitors. The read-out for proliferation uses incorporation of 3H thymidine. The assay reflects the in vivo sensitivity of tumor cells to Compound 1.
(§2) The effect of PI3K inhibitors (e.g., compounds such as Compound A) on the proliferation of medulloblastoma cells derived from sensitive and resistant medulloblastoma cells was evaluated by using an “ex-vivo medulloblastoma proliferation assay,” as described above.

[2] = system: sensitive medulloblastoma tumor cells; assay: ex-vivo medulloblastoma proliferation assay (3H thymidine, 48 h), sensitive tumor cells; format: cell-based; conditions: Mus musculus, Sensitive tumor, Table 3
Experimental: as §1, §2

[3] = system: Akt and S6 phosphorylation; assay: Western blot of ex-vivo medulloblastoma assay; format: cell-based, mouse; conditions: sensitive and resistant cells, FIG. 5
[4] = system: Ptch+/−Hic+/− medulloblastoma allograft; assay: combination of Smo inhibitor and PI3K inhibitor in Ptch+/−Hic+/− medulloblastoma allograft model; format: in vivo, mouse
Source text: Mouse medulloblastoma cells (1.0-5.0×10^6), dissociated directly from tumor fragments originally derived from spontaneously arising medulloblastomas in Ptch+/-p53-/-, Ptch+/-Hic+/- or Ptch+/- mice, were inoculated subcutaneously into the right flank of Harlan nu/nu mice. Treatment was initiated approximately 7-10 days post implantation. Animals were randomized into treatment groups with similar mean tumor volumes that ranged from approximately 250-300 mm3. Tumor volumes (mm3) and body weights (g) were recorded two or three times per week from all groups for analysis. Dose was body weight adjusted at time of dosing. Comparisons between treatment groups was performed using a non-parametric Kruskal-Wallis/Wilcoxon Rank Sum Test. Tumors were calipered in two dimensions, and the volumes were calculated using the formula: (length×width2)/2, where length is the longer of the two measurements and width is the shorter one. […] A partial responder (PR) was defined as an animal whose tumor was less than 50% of the initial tumor volume by the end of the study. An animal with no palpable tumor by the end of study is defined as a complete responder (CR). Next, a combination of Compound 1 and Compound A was explored in the Ptch+/-Hic+/- medulloblastoma allograft model. […] Animals treated with vehicle control and with compound A had to be sacrificed around day 20 and 25, respectively, because their tumor volume reached 1500 mm3. […] Similar results were obtained for animals treated with Compound 1 alone for the first 10 days, followed by single agent treatment with Compound A (data not shown). […] Next, a combination of Compound 1 and Compound B was explored in the Ptch+/-Hic+/- medulloblastoma allograft model. […] Animals treated with vehicle control and with compound B reached the endpoint around day 12 to 15, respectively, because their tumor volume reached 700 mm3.

[5] = system: Ptch+/−p53−/− medulloblastoma allograft; assay: Ptch+/−p53−/− medulloblastoma allograft model, continuous dosing; format: in vivo, mouse; conditions: 100 mg/kg bid, 25 days, FIG. 1
Source text: (§3) Mouse medulloblastoma cells (1.0−5.0×10^6), dissociated directly from tumor fragments originally derived from spontaneously arising medulloblastomas in Ptch+/−p53−/−, Ptch+/−Hic+/− or Ptch+/− mice, were inoculated subcutaneously into the right flank of Harlan nu/nu mice. Treatment was initiated approximately 7-10 days post implantation. Animals were randomized into treatment groups with similar mean tumor volumes that ranged from approximately 250-300 mm3. Tumor volumes (mm3) and body weights (g) were recorded two or three times per week from all groups for analysis. Dose was body weight adjusted at time of dosing. Comparisons between treatment groups was performed using a non-parametric Kruskal-Wallis/Wilcoxon Rank Sum Test.
Tumors were calipered in two dimensions, and the volumes were calculated using the formula: (length×width2)/2, where length is the longer of the two measurements and width is the shorter one. Percent treatment/control (% T/C) values were calculated using the following formula: % T/C=100×ΔTf−i/ΔCf−i if ΔTf−i>0, % T/T0=100×ΔTf−i/T0 if ΔTf−i<0 (regression). A partial responder (PR) was defined as an animal whose tumor was less than 50% of the initial tumor volume by the end of the study. An animal with no palpable tumor by the end of study is defined as a complete responder (CR). […]

[6] = system: Ptch+/−Hic+/− medulloblastoma allograft; assay: Ptch+/−Hic+/− medulloblastoma allograft model, continuous dosing; format: in vivo, mouse; conditions: for number of sustained complete regressions: dosed day 10 to day 56, day 56
Source text: as §3
(§4) Tumors were calipered in two dimensions, and the volumes were calculated using the formula: (length×width2)/2, where length is the longer of the two measurements and width is the shorter one. Percent treatment/control (% T/C) values were calculated using the following formula: % T/C=100×ΔTf−i/ΔCf−i if ΔTf−i>0, % T/T0=100×ΔTf−i/T0 if ΔTf−i<0 (regression). A partial responder (PR) was defined as an animal whose tumor was less than 50% of the initial tumor volume by the end of the study. An animal with no palpable tumor by the end of study is defined as a complete responder (CR).
Treatments started on day 7 post implantation (5 million cells/animal). Compound 1 was administered po at 5 mg/kg bid, 10 mg/kg bid, 20 mg/kg qd, 20 mg/kg bid, 40 mg/kg bid and 80 mg/kg bid for the length of study. Compound 2 was administered at 100 mg/kg bid for the length of study. Vehicle control of Compound 1 was 0.5% methylcellulose 0.5% Tween 80 in water. The initial group size consisted of 8 animals. The vehicle group was taken down 10 days after treatment (tumors greater than 10% of mouse body weight).
Sustained regressions listed in the Table 1 represent number of complete responses still present at the end of study on day 47.
Two additional Smo inhibitors, Compound 3 and Compound 4 were evaluated in follow-up studies in the Ptch+/−Hic+/− model upon continous dosing.

[7] = system: Ptch+/− medulloblastoma allograft; assay: Ptch+/− medulloblastoma allograft model, continuous dosing; format: in vivo, mouse; conditions: 100 mg/kg bid, day 48
Source text: as §3, §4
Treatments started on day 7 post implantation (5 million cells/animal). Compound 1 was administered po at 10 mg/kg qd, 20 mg/kg qd, 40 mg/kg qd, 80 mg/kg qd and 160 mg/kg qd for the length of study. Compound 2 was administered at 100 mg/kg bid for the length of study. Vehicle control of Compound 1 was 0.5% methylcellulose 0.5% Tween 80 in water. The initial group size consisted of 8 animals. The vehicle group was taken down 7 days after treatment (tumors greater than 10% of mouse body weight). Similar resistance was seen to that observed with the Ptc+/−Hic+/− model, with a subset of the complete responders growing back and others showing complete regression (Table 2). Sustained regression listed in Table 2 represent number of complete regressions still present at the end of study on day 48.

[8] = Mus musculus, Resistant tumor, Table 3

- IC50 [1, 8]: 4 nM
- IC50 [2]: 4 nM
Structure (SMILES): CCC(C)(C)C(=O)O[C@H]1C[C@@H](C)C=C2C=C[C@H](C)[C@H](CC[C@@H]3C[C@@H](O)CC(=O)O3)[C@H]21 [Simvastatin, reference compound]

- IC50 [1, 8]: 220 nM
- IC50 ([1]; Mus musculus, ptch+/− Hic+/−, Resistant, Table 4): 300 nM
- IC50 ([1]; ptch+/− Hic+/−, Resistant, Table 4): 170 nM and 150 nM
- IC50 [2]: 200 nM
Structure (SMILES): Nc1cc(C(F)(F)F)c(-c2cc(N3CCOCC3)nc(N3CCOCC3)n2)cn1 [Compound A, 5-(2,6-di-morpholin-4-yl-pyrimidin-4-yl)-4-trifluoromethyl-pyridin-2-ylamine]
- inhibition of Akt and S6 phosphorylation [3]: inhibits Akt and S6 phosphorylation in both sensitive and resistant cells; also recorded: inhibited Akt and S6 phosphorylation both in sensitive and resistant tumors at similar concentrations
- inhibition of proliferation, sensitive compared with resistant tumors ([1]; sensitive and resistant tumors): inhibited both sensitive and resistant tumors with similar IC50s
- effect on tumor growth ([4]; 60 mg/kg qd, FIG. 6A): only a moderate effect on tumor growth compared to vehicle control
- time to endpoint (tumor volume >1500 mm3) ([4]; 60 mg/kg qd, FIG. 6B): ~25 days

Structure (SMILES): Cn1c(=O)n(-c2ccc(C(C)(C)C#N)cc2)c2c3cc(-c4cnc5ccccc5c4)ccc3ncc21 [Compound B, 2-methyl-2-[4-(3-methyl-2-oxo-8-quinolin-3-yl-2,3-dihydro-imidazo[4,5-c]quinolin-1-yl)-phenyl]-propionitrile]
- effect on tumor growth ([4]; 40 mg/kg qd, FIG. 7A): no effect on tumor growth compared to vehicle control
- time to endpoint (tumor volume >700 mm3) ([4]; 40 mg/kg qd, FIG. 7B): ~15 days

Structure (SMILES): COc1cc(OC)cc(C(=O)Nc2ccc(Cl)c(-c3nc4cc(N(C)C)ccc4[nH]3)c2)c1 [Compound 2, N-[4-Chloro-3-(5-dimethylamino-1H-benzoimidazol-2-yl)-phenyl]-3,5-dimethoxy-benzamide, reference compound]
- tumor response on continuous dosing [5]: initially caused regression, followed by tumor regrowth
- sustained regressions (complete responses still present at end of study) ([6]; 100 mg/kg bid po, day 47): 0/8
- sustained regressions (complete regressions still present at end of study) [7]: 0/8

Structure (SMILES): Cc1c(Cc2ccccc2)nnc(N2CCN(c3cnc(C(C)(C)O)cn3)[C@H](C)C2)c1C [Compound 3, 2-[(R)-4-(6-Benzyl-4,5-dimethyl-pyridazin-3-yl)-2-methyl-3,4,5,6-tetrahydro-2H-[1,2]bipyrazinyl-5′-yl]-propan-2-ol]
- number of sustained complete regressions ([6]; 40 mg/kg bid): 3/8
- number of sustained complete regressions ([6]; 40 mg/kg qd): 0/8
- number of sustained complete regressions ([6]; 60 mg/kg qd): 0/8
- number of sustained complete regressions ([6]; 80 mg/kg qd): 0/8
- number of sustained complete regressions ([6]; 100 mg/kg qd): 3/8
- tumor response on continuous dosing ([6]; follow-up studies, continuous dosing): initially induced tumor regression followed by tumor regrowth in the presence of compound
